Results published in BigSolDB 2.1.

O=c1c(-c2ccc(O)cc2)coc2cc(O)cc(O)c12
solubility (mole fraction)
Conditions | 288.2 K | 293.2 K | 298.2 K | 303.2 K | 308.2 K | 313.2 K | 318.2 K | 323.2 K | 328.2 K
in acetone | 0.00477 | 0.00526 | 0.00607 | 0.007 | 0.00754 | 0.00805 | 0.00856 | 0.00879 | 0.0089
in chloroform | 2.41e-06 | 2.82e-06 | 3.22e-06 | 3.6e-06 | 3.99e-06 | 4.36e-06 | 4.51e-06 | 4.7e-06 | 4.74e-06
in ethyl acetate | 0.00183 | 0.0022 | 0.00241 | 0.00273 | 0.00335 | 0.00367 | 0.00413 | 0.00471 | 0.00539
in methanol | 0.000935 | 0.00127 | 0.00145 | 0.00163 | 0.00192 | 0.00212 | 0.00266 | 0.00323 | 0.00372
in n-hexane | 6.96e-06 | 8.12e-06 | 9e-06 | 1.01e-05 | 1.09e-05 | 1.14e-05 | 1.24e-05 | 1.3e-05 | 1.41e-05
in water | 4.72e-08 | 6.95e-08 | 8.46e-08 | 1.05e-07 | 1.25e-07 | 1.67e-07 | 1.99e-07 | 2.7e-07 | 3.68e-07
